Test: In-vial stability, 2 weeks: HPLC content and total impurities
Format: physicochemical
Protocol: The glass vials containing the compositions prepared in Example 4-1 were stored for 2 weeks under the two conditions below, and stability study was performed.
Aliquots of the compositions in the glass vial were taken, and the content of Compound 1 and total impurities were measured with HPLC. Measurements were performed in duplicates, and the average value was reported. Impurities were quantified by percentage area relative to the main Compound 1 peak and based on Relative Response Factor (RRF) of 1.0. As a positive control, the dried powder of Compound 1 was used and tested in the same way.

Compound 1 Content (%) (t = 0): 100.5%
Total Impurities (%) (t = 0): 0.15%
Compound 1 Content (%) (t = 2w (40° C./75% RH)): 100.3%
Total Impurities (%) (t = 2w (40° C./75% RH)): 0.14%
SMILES: CC(=O)Nc1cccc(-n2c(=O)n(C3CC3)c(=O)c3c(Nc4ccc(I)cc4F)n(C)c(=O)c(C)c32)c1 [Compound 1, N-(3-{3-Cyclopropyl-5-[(2-fluoro-4-iodophenyl)amino]-6,8-dimethyl-2,4,7-trioxo-3,4,6,7-tetrahydropyrido[4,3-d]pyrimidin-1 (2H)-yl}phenyl) acetamide]
